Data as given in ChEMBL document CHEMBL1133062, “The synthesis and in vitro cytotoxic studies of novel bis-naphthalimidopropyl polyamine derivatives” (2000).

Experiments:
Type in all cases: functional
NCI-H522 = test: The compound was tested for its cytotoxic activity against the following non small cell lung cancer cell lines NCI-H522; conditions: Homo sapiens
HL-60 = test: The compound was tested for its growth inhibitory activity against […] cancer cell line HL60-TB; conditions: Homo sapiens
SF-268 = test: The compound was tested for its cytotoxic activity against the following CNS cancer cell lines SF-268; conditions: Homo sapiens
K562 = test: The compound was tested for its cytotoxicity against the following leukemia cell line K-562; conditions: Homo sapiens
Prostatic carcinoma cell = test: The compound was tested for its growth inhibitory activity against prostate cancer cell line; conditions: Homo sapiens
Ovarian carcinoma cell = test: The compound was tested for its growth inhibitory activity against ovarian cancer cell line; conditions: Homo sapiens
HCT-15 = test: The compound was tested for its cytotoxic activity against the following colon cancer cell lines HCT-15; conditions: Homo sapiens
UO-31 = test: The compound was tested for its cytotoxic activity against the following renal cancer cell lines UO-31; conditions: Homo sapiens
SF-295 = test: The compound was tested for its cytotoxic activity against the following CNS cancer cell lines SF-295; conditions: Homo sapiens
Melanoma cell = test: The compound was tested for its growth inhibitory activity against melanoma, human cancer cell line
Breast carcinoma cell = test: The compound was tested for its growth inhibitory activity against breast cancer cell line; conditions: Homo sapiens
CNS carcinoma cell = test: The compound was tested for its growth inhibitory activity against CNS cancer cell line; conditions: Homo sapiens
Colon carcinoma cell = test: The compound was tested for its growth inhibitory activity against colon cancer cell line; conditions: Homo sapiens
786-0 = test: The compound was tested for its cytotoxic activity against the following renal cancer cell lines 786-0; conditions: Homo sapiens
[1] = Mean value for over all cell lines tested
Lung cancer cell line = test: The compound was tested for its growth inhibitory activity against non small cell lung cancer cell line; conditions: Homo sapiens
IGROV-1 = test: The compound was tested for its cytotoxic activity against the following ovarian cancer cell lines IGROVI; conditions: Homo sapiens
Hs-578T = test: The compound was tested for its cytotoxic activity against the following breast cancer cell lines HS 578T; conditions: Homo sapiens
SK-OV-3 = test: The compound was tested for its cytotoxic activity against the following ovarian cancer cell lines SK-OV-3; conditions: Homo sapiens
NCI/ADR-RES = test: The compound was tested for its cytotoxic activity against the following breast cancer cell lines NCI / ADR-RES; conditions: Homo sapiens
[2] = tested on: Panel leukemia (Carcinoma cell lines); test: The compound was tested for its growth inhibitory activity against leukemia cell line; conditions: Homo sapiens
Renal cancer cell line = test: The compound was tested for its growth inhibitory activity against renal cancer cell line; conditions: Homo sapiens
SW-620 = test: The compound was tested for its cytotoxic activity against the following colon cancer cell lines SW-620; conditions: Homo sapiens
EKVX = test: The compound was tested for its cytotoxic activity against the following non small cell lung cancer cell lines EKVX; conditions: Homo sapiens

Structure (SMILES) | GI50 (NCI-H522) [nM] | GI50 (HL-60) [nM] | GI50 (SF-268) [nM] | GI50 (K562) [nM] | GI50 (Prostatic carcinoma cell) [nM] | GI50 (Ovarian carcinoma cell) [nM] | GI50 (HCT-15) [nM] | GI50 (UO-31) [nM] | GI50 (SF-295) [nM] | GI50 (Melanoma cell) [nM] | GI50 (Breast carcinoma cell) [nM] | GI50 (CNS carcinoma cell) [nM] | GI50 (Colon carcinoma cell) [nM] | GI50 (786-0) [nM] | mean GI50 [1] [nM] | GI50 (Lung cancer cell line) [nM] | GI50 (IGROV-1) [nM] | GI50 (Hs-578T) [nM] | GI50 [2] [nM] | GI50 (Renal cancer cell line) [nM] | other results
Br.Br.Br.O=C1c2cccc3cccc(c23)C(=O)N1CCCNCCCCNCCCNCCCN1C(=O)c2cccc3cccc(c23)C1=O | 30 | 156 | 111 | 1170 | 460 | 790 | 10900 | 10600 | 4780 | 1170 | 3490 | 1160 | 2350 | 185 | 1420 | 580 | 267 | 44 | 250 | 2490 | GI50 (SK-OV-3): 1310 nM; GI50 (NCI/ADR-RES): 19500 nM; GI50 (SW-620): 449 nM; GI50 (EKVX): 1050 nM
Br.Br.O=C1c2cccc3cccc(c23)C(=O)N1CCCNCCCCNCCCN1C(=O)c2cccc3cccc(c23)C1=O | 13 | 222 | 29 | 12 | 130 | 340 | 2660 | 1910 | 488 | 440 | 2260 | 290 | 590 | 24 | 580 | 530 | 82 | 65 | 80 | 570 | GI50 (SK-OV-3): 722 nM; GI50 (NCI/ADR-RES): 13100 nM; GI50 (SW-620): 37 nM; GI50 (EKVX): 1370 nM
Br.Br.Br.Br.O=C1c2cccc3cccc(c23)C(=O)N1CCCNCCCNCCCCNCCCNCCCN1C(=O)c2cccc3cccc(c23)C1=O | 825 | 33 | 722 | 3600 | 3460 | 6120 | 12800 | 10800 | 5350 | 4040 | 4490 | 4070 | 4230 | 555 | 4310 | 3510 | 856 | 630 | 1430 | 7430 | GI50 (SK-OV-3): 10800 nM; GI50 (NCI/ADR-RES): 15100 nM; GI50 (SW-620): 1160 nM; GI50 (EKVX): 4500 nM
Br.Br.O=C1c2cccc3cccc(c23)C(=O)N1CCCNOCCONCCCN1C(=O)c2cccc3cccc(c23)C1=O | – | – | – | – | 77600 | 81000 | – | – | – | 78000 | 77600 | 65900 | 73200 | – | 68600 | 72600 | – | – | 25700 | 65400 | –
